Data reported in patent US9173877B1, “Compositions and methods for the treatment of local pain” (CELLIX BIO PRIVATE LIMITED, priority 2014, dated 2015).

Assay: Pharmacokinetic evaluation of Bupivacaine (BU) and Formula I (1-1) in Sprague-Dawley rats (blood and brain concentrations)
Format: in vivo
Details: rat, male Sprague-Dawley rats, intravenous, 3 mg/kg, n=5
Description: Male specific pathogen-free Sprague-Dawley rats weighing 300-350 g were obtained from the Laboratory. The animals had free access to food and water. The rat was anaesthetized with urethane 1.0 g/mL and chloralose 0.1 g/mL (1 mL/kg, i.p.) before surgery. The femoral vein was cannulated for further drug administration, and the rat's body temperature was maintained by heating pad during the experiment. All rats remained anaesthetized during the experimental period over which the Formula I (1-1) and BU concentrations in blood, brain and bile were monitored, and they were euthanized by overdose CO2 under the anaesthetic after the experimental endpoint.
Bupivacaine (3 mg/mL) was prepared in 0.9%(w/v) sodium chloride. Formula I (1-1) equivalent of BU 3 mg/mL. Rats were divided into the following groups (n=5 for each group) and received drugs intravenously: group 1 treated with (20 mg/kg) 10 min before BU (3 mg/kg) administration, group 2 treated with Formula I (1-1) (3 mg/kg).
The chromatographic system consisted of a PM-80 chromatographic pump (BAS, West Lafayette, Ind., USA), an off-line injector (CMA/140, Stockholm, Sweden) equipped with a […] sample loop injector (Rheodynemodel7125) and a UV-Vis detector (Soma, Tokyo, Japan) that operated at room temperature (25±2° C.). Separation was achieved on a LiChrosphere60RP-select B column (4.6 mm×250 mm, […], Merck). The mobile phase for plasma, brain homogenate, blood dialysate and brain dialysate was comprised of 10 mM potassium dihydrogenphosphate-acetonitrile-triethylamine (67:33:0.01), adjusted to pH4.3 with H3PO4. The mobile phase for bile dialysate consisted of 10 mM potassium dihydrogen phosphate-acetonitrile-triethylamine (60:40:0.01), adjusted to pH6.0 with H3PO4. The flow rate was set at 1.0 mL/min for both mobile phases.

AUC (Blood): 1370 ng·h/mL
half-life (Blood): 4 ± 2 min
AUC (Brain): 250 ng·h/mL
Cmax (Brain): 560 ± 130 ng/mL
SMILES: CCCCN1CCCCC1C(=O)Nc1c(C)cccc1C (stereo not shown) [BU, Bupivacaine]
